In ChEMBL document CHEMBL1124372, “Thienothiopyran-2-sulfonamides: novel topically active carbonic anhydrase inhibitors for the treatment of glaucoma” (J Med Chem, 1989):
“And” between values parts separate entries of the source, which are not always exact repeats. Equal entries are not always repeated.

Columns and labels:
[1] = The aqueous solubility in 2% solution was determined; soluble; assay type: physicochemical; details: buffer
[2] = Binding of 10 phosphate buffer; assay type: protein assay; details: Bos taurus
Oryctolagus cuniculus = species: Oryctolagus cuniculus; assay: Maximum fall in ocular hypertension in the right eye of albino rabbits; assay type: functional
Carbonic anhydrase 2 [3] = biological target: T1, Carbonic anhydrase 2 (Homo sapiens, UniProt P00918)
Carbonic anhydrase 2 [4] = biological target: T1, Carbonic anhydrase 2; remark: listed apart in the source
Carbonic anhydrase 2 [5] = biological target: T1, Carbonic anhydrase 2; remark: listed apart in the source
[6] = The aqueous solubility in 2% solution was determined; insoluble; assay type: physicochemical; details: buffer
[7] = The aqueous solubility in 2% (+ = soluble, - = insoluble) solution was determined; assay type: physicochemical; details: buffer

SMILES	Aqueous solubility [1]	Binding [2]	Activity (Oryctolagus cuniculus)	IC50 (Carbonic anhydrase 2 [3])	IC50 (Carbonic anhydrase 2 [4])	Ki (Carbonic anhydrase 2 [5])	Aqueous solubility [6]	Aqueous solubility [7]
NS(=O)(=O)c1cc2c(s1)S(=O)(=O)CCC2O (stereo not drawn)	Soluble	1.9%	-6.9 mmHg					
CC(C)CN[C@H]1CCS(=O)(=O)c2sc(S(N)(=O)=O)cc21		12.3% and 12.8%						
CCN(CC)C1CCS(=O)(=O)c2sc(S(N)(=O)=O)cc21.Cl (stereo not drawn)	Soluble	9%	-5.3 mmHg	70 nM	12.3 nM	9.3 nM		
CC(C)CN[C@@H]1CCS(=O)(=O)c2sc(S(N)(=O)=O)cc21.Cl	Soluble		-1.3 mmHg					
CCCCNC1CCS(=O)(=O)c2sc(S(N)(=O)=O)cc21.Cl (stereo not drawn)		25.6%	-5.7 mmHg	12.4 nM	2.3 nM	1.8 nM	Insoluble	
CCNC1CCS(=O)(=O)c2sc(S(N)(=O)=O)cc21.Cl (stereo not drawn)	Soluble	29.2%	-4.2 mmHg					
Cl.NC1CCS(=O)(=O)c2sc(S(N)(=O)=O)cc21 (stereo not drawn)	Soluble	32.1%	-3.3 mmHg	9.2 nM	3.2 nM	3.7 nM		
CC(C)CN[C@H]1CCS(=O)(=O)c2sc(S(N)(=O)=O)cc21 [SEZOLAMIDE]	Soluble		-4.3 mmHg					
CNC1CCS(=O)(=O)c2sc(S(N)(=O)=O)cc21.Cl (stereo not drawn)		23.7%	-3.3 mmHg	13.9 nM	2.5 nM	2.3 nM		Soluble
CC(C)CN[C@H]1CCS(=O)(=O)c2sc(S(N)(=O)=O)cc21.Cl [SEZOLAMIDE HYDROCHLORIDE]	Soluble		-6.5 mmHg					
CCCNC1CCS(=O)(=O)c2sc(S(N)(=O)=O)cc21.Cl (stereo not drawn)		19.8%	-8.7 mmHg	9.2 nM	1.5 nM	1.1 nM	Insoluble	
